{"source": "patent US11607420B2", "about": "“Formulation” (DSM IP ASSETS B.V., priority 2018, dated 2023)", "assay": "Absorption of aqueous solution after dissolving powder in water (riboflavin coloration/release)", "assay_type": "physicochemical", "details": "powder containing 10 mg riboflavin in 1000 ml water for 15 min; measured at 545 nm, spectrophotometer", "experimental": "20 mg of coated powder (containing 10 mg of Riboflavin) was dissolved in 1000 ml water for 15 min. Absorption of the solution was measured at 545 nm using a spectrophotometer (Genesys 20, thermo Scientific). Absorption of the solution was 0.065.\n10 mg of riboflavin powder was dissolved in 1000 ml water for 15 min. Absorption of the solution was measured at 545 nm using a spectrophotometer (Genesys 20, thermo Scientific). Absorption of the solution was 0.386.\n16.6 mg of coated powder (containing 10 mg of Riboflavin) was dissolved in 1000 ml water for 15 min. Absorption of the solution was measured at 545 nm using a spectrophotometer (Genesys 20, thermo Scientific). Absorption of the solution was 0.087."}
{"smiles": "Cc1cc2nc3c(=O)[nH]c(=O)nc-3n(C[C@H](O)[C@H](O)[C@H](O)CO)c2cc1C", "note": "[Comparison Example 2, riboflavin]", "values": [{"measurement": "Absorption of the solution", "result": 0.386}]}
